# In PubChem BioAssay AID1996:
# Settings: buffer; pH 7.4; 200.0 µM
row,SMILES,solubility kinetic [µg/mL]
1,N/C(CC(=O)Nc1ccc(F)c(Cl)c1)=N\OC(=O)c1cccs1,2.4
2,Cc1ccc(NC(=O)CNC(=O)c2ccc3c(c2)OCO3)nc1,20.5
3,Cc1c(Cl)cccc1NC(=O)Cc1cccs1,11.1
4,CCCCOC(=O)C1=C(C)NC(=O)NC1c1ccc(N(C)C)cc1 (stereo not given),1.7
5,O=C1CC(c2ccccc2Cl)CC(O)=C1C=NCCCO (stereo not given),44.3
6,Cc1noc(C)c1C(=O)Nc1ccccc1N1CCCC1,37.6
7,O=S(=O)(Nc1cccc(F)c1)c1cccc2nsnc12,> 46.4
8,Cc1nc(SCC(=O)NC(=O)NC2CCCCC2)nc(C)c1C,47.8
9,CC1CCN(Cc2nc(Cl)c3c4c(sc3n2)CCC4)CC1,27.4
10,COc1ccc(NC(=O)C(=O)Nc2cccc3cccnc23)cc1OC,< 0.3
11,COc1ccc(-n2nc3c(c2NC(C)=O)CS(=O)(=O)C3)cc1,> 48.2
12,NS(=O)(=O)c1cc(C(=O)NCCc2ccccn2)ccc1Cl,49.1
13,CC(=O)NCc1ccc(S(=O)(=O)N2CCCN(C)CC2)cc1.Cl,> 54.3
14,Cc1ccc(C(=O)C2CCN(CC(=O)NC3CCCC3)CC2)cc1,> 49.3
15,Cc1cc(C)c(S(=O)(=O)Nc2ccc(Cl)cn2)c(C)c1,1.8
16,CCOC(=O)c1c(O)c2ccccc2n(CC)c1=O,> 39.2
17,CCC(=O)Nc1cccc(-c2cn3cccc(C)c3n2)c1,39.8
18,N#Cc1cccc(NS(=O)(=O)c2ccccc2Cl)c1,> 43.9
19,Cc1cccc(C(=O)OCC(=O)NC23CC4CC(CC(C4)C2)C3)c1O,8.9
20,COc1ccc(S(=O)(=O)NC(C)C(=O)NCc2ccncc2)cc1Cl (stereo not given),> 57.6

row,SMILES,solubility kinetic [µg/mL]
1,CCCC(CCC)C(=O)OC1C[C@H]2CC[C@@H](C1)[N+]2(C)C.[Br-] (stereo not given in full),> 54.4
2,O=S(=O)(NC1CCCCCC1)c1cccc(Cl)c1,40.6
3,COc1ccc(NC(=O)c2cc(C)no2)cc1Cl,7.5
4,Cn1cc(S(=O)(=O)NCc2ccc3c(c2)OCO3)c(C(F)(F)F)n1,> 54.5
5,Cc1csc(CN(C)C(=O)C2CCC(=O)N(CCN(C)C)C2)n1 (stereo not given),32.9
6,CCn1c(C)c(C(=O)NCCc2ccccc2)c2cc(OC)ccc21,23
7,Cc1cccc(NC(=O)C2Cc3ccccc3O/C2=N\O)c1 (stereo not given),1.2
8,CC1=Nc2cccc([N+](=O)[O-])c2NC(=O)C1,> 32.9
9,O=C(CNC(=O)c1ccc(Cl)cc1Cl)OCc1cn2cc(Br)ccc2n1,29.7
10,Cc1[nH]c2ccc(C(=O)N3CCN(C)CC3)cc2c1C,> 40.7
11,COc1ccc(C(O)C(C)NC(C)C(O)c2ccc(OC)cc2)cc1 (stereo not given),43.3
12,Cc1ccc(S(=O)(=O)N2CCCC(C(=O)NC3CC3)C2)cc1 (stereo not given),46.2
13,Cc1nc(NC(=O)C2CC2)sc1C(=O)Nc1ccccc1,3.8
14,Cc1cccc(NC(=O)Nc2cccnc2)c1C,> 36.2
15,CCOc1ccc(NC(=O)CSc2nncn2C)cc1,> 43.9
16,Cc1ccc(C(=O)NCCCNC(=O)COc2ccc(C)c(C)c2)cn1,49.1
17,Cc1ccc(C)c(-n2c(=O)c(C#N)cc3c(=O)n4ccccc4nc32)c1,6.2
18,O=C(O)c1cc(-c2ccc(Br)s2)nc2ccccc12,> 50.1
19,Cc1ccn2c(=O)c(C(=O)O)cnc2c1,> 30.6

# Results, then the molecule that gave them:
row,solubility kinetic [µg/mL],SMILES
1,> 37.4,CC1(C)c2cc(O)ccc2OC1N1CCOCC1 (stereo not given)
2,< 0.6,COc1ccc(N2C(=O)c3cccc4cccc(c34)C2=O)cc1
3,2.3,O=C(CSc1nccc(-c2cccs2)n1)Nc1ccccc1
4,42.2,O=C(c1ccccc1Cl)N1CCC(n2cccc2)CC1
5,5.1,COc1ccccc1NS(=O)(=O)c1ccc(N2CCOCC2)c(N)c1
6,> 37.8,OCCCNc1c2ccccc2nc2ccccc12
7,> 39.9,O=C(O)c1ccc(-c2nnc(-c3ccccc3)o2)cc1
8,3.5,O=C(COC(=O)c1cc(Cl)ccc1O)Nc1cc(C(F)(F)F)ccc1N1CCOCC1
9,2.7,CC1=CC2=NC(=O)/C(=C/c3cccn3Cc3ccccc3)C(=N)N2O1
10,34.3,CC(OC(=O)CCOc1ccccc1)C(=O)Nc1ccc(Cl)cn1 (stereo not given)
11,1,CCOc1ccc(C)cc1S(=O)(=O)n1cnc2ccccc21
12,6.2,Cc1nc2ccc(NC(=O)c3cccc(S(=O)(=O)N4CCOCC4)c3)cc2s1
13,42.2,Cl.c1ccc(Cc2ccc(OCCN3CCOCC3)cc2)cc1
14,< 0.4,O=C(c1cc2cc(Br)ccc2[nH]1)N1CCc2ccccc21
15,> 36.5,C=Cn1c(C(=O)O)ccc1-c1ccc(OC)cc1
16,> 67.6,CC(NC(=O)COC(=O)c1cc(S(=O)(=O)N2CCOCC2)ccc1F)c1ccccc1 (stereo not given)
17,40.4,OCCNc1nc2ccccc2n1CC(O)c1ccccc1 (stereo not given)
18,> 51.3,O=C(O)C1CCN(C(=O)COc2ccc(Br)cc2)CC1
19,> 45.3,Cc1ccc(OCC(O)CN2CCOCC2)cc1C.Cl (stereo not given)
20,52.7,Cc1ccccc1OCCC(=O)Nc1ccccc1C(=O)N1CCCCC1
21,> 35.6,Nc1cccc(-c2cc3ccccc3oc2=O)c1
